Experimental findings from patent US7238716B2, “Alkanoic acid derivatives process for their production and use thereof” (Takeda Pharmaceuticals Company Limited, priority 2000, dated 2007) are described below.

Where two headings read alike, the source gives them in different places.

The subject of one test is KKAY mice. Nature of the test: Hypoglycemic and hypolipidemic actions in mice (Test Example 1). It is filed as in vivo. Conditions: Mus musculus, po, 96 h, four days; for inhibition in vivo at 0.005 %: 0.005% in powdery diet; for inhibition in vivo at 0.01 %: 0.01% in powdery diet. From the text:
Test compounds were mixed in a powdery diet (CE-2, Japan Clea) at the concentration of 0.01% (compounds of Examples 7, 26, 29, 32) or 0.005% (compounds of Examples 1, 11, 15, 18, 24, 36, 37, 41, 48, 50, 51, 52, 58, 62, 79, 83, 88, 90, 91, 92, 93, 97, 107, 110, 115, 119, 122, 125, 129 and 130), and freely given to KKAY mice (11 to 12 weeks old, 5 mice in a group), a model of type 2 diabetes mellitus, for four days. During this period, water was given freely. Blood was sampled from orbital venous plexus, and glucose and triglyceride levels in plasma separated from blood were determined enzymatically using L type Wako Glu2 (Wako Pure Chemical Industries, Ltd.) or L type Wako TG.H (Wako Pure Chemical Industries, Ltd.), respectively.
In the Table, “hypoglycemic action (%)” means a percent reduction (%) of the glucose level in the test compound administration group when that of the test compound non-administration group is taken as 100%. In addition, the “hypolipidemic action (%)” means a percent reduction (%) of the triglyceride level in the test compound administration group when that of the test compound non-administration group is taken as 100%.

In another test the target is T1, PPARγ-RXRα heterodimer (Homo sapiens, UniProt P37231).
T1 construct: expressed in transfected cells; host or cells: CHO-K1
T1 sequence (P37231 1-477 isoform P37231-2): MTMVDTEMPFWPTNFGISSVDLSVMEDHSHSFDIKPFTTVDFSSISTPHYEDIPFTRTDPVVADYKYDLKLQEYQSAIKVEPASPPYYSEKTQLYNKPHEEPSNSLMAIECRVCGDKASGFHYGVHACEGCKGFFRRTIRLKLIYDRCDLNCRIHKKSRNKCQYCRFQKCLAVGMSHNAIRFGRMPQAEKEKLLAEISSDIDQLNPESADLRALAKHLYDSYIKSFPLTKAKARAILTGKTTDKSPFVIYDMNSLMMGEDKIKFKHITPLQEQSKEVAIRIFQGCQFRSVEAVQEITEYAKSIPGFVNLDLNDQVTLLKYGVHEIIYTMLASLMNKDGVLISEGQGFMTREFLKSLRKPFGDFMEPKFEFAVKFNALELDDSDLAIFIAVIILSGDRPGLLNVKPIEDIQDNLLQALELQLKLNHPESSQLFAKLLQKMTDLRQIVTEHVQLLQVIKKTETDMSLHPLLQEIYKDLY
T1 sequence (P19793 1-462 partner): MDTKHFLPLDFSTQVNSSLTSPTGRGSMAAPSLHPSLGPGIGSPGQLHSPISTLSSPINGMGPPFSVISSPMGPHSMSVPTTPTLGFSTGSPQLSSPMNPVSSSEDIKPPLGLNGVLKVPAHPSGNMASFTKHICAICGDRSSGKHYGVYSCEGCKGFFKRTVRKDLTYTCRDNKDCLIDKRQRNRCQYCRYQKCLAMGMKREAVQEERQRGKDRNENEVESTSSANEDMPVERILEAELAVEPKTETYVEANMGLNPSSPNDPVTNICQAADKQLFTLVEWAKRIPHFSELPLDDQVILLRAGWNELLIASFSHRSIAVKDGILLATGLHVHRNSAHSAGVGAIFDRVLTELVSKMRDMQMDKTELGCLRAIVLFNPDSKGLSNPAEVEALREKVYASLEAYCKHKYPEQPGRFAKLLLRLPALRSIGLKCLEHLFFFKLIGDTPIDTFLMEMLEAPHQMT
Nature of the test: PPARγ-RXRα heterodimer ligand activity, luciferase reporter in PPARγ:RXRα:4ERPP/CHO-K1 cells (Test Example 3). In kind it is cell-based. Conditions: concentration for 50% of the maximum fold induction of luciferase activity; 48 hours, CHO-K1 cells. As for the experimental part:
A PPARγ:RXRα:4ERPP/CHO-K1 cells obtained in Reference Example 5 described later were cultured in HAM F12 medium (produced by NISSUI SEIYAKU) containing 10% Fetal bovine serum (produced by Life Technologies, Inc., USA) and then inoculated to a 96-well white plate (produced by Corning Costar Corporation, USA) at the density of 2×10^4 cells/well, and cultured in a CO2 gas incubator at 37° C. overnight.
After washing the 96 well white plate with PBS (Phosphate-buffered saline), 90 μl of HAM F12 medium containing 0.1% fatty acid-free bovine serum albumin (BSA) and 10 μl of test compound were added, which was cultured in a CO2 gas incubator at 37° C. for 48 hours. After removing the medium, 40 μl of PIKKAGENE 7.5 (produced by Wako Pure Chemical Industries, Ltd.) was added. After stirring, the luciferase activity was determined using Lumistar (produced by BMG Labtechnologies GmbH, Germany).
A fold induction was calculated based on the luciferase activity of each test compound by taking the luciferase activity in the test compound non administration group as 1. The values of the test compound, concentration and the fold induction were analyzed using PRISM 2.01 (produced by GraphPad Software Inc. USA) to calculate the EC50 values, the effective concentration of a test compound for 50% of the maximum fold induction.
After a CHO-K1 cell cultured in a 750 ml tissue culture flask (produced by Corning-Costar Corporation, USA) containing HAM F12 medium (produced by NISSUI SEIYAKU) supplemented with 10% Fetal Bovine Serum (produced by Life Technologies, Inc., USA) was scraped by treating with 0.5 g/L trypsin-0.2 g/L EDTA (ethylenediaminetetraacetic acid) (produced by Life Technologies, Inc., USA), the cell was washed with PBS (phosphate buffered saline) (produced by Life Technologies, Inc., USA), centrifuged (1000 rpm, 5 minutes), and then suspended in PBS. Subsequently, a DNA was introduced into the cell under the condition shown below using GENE PULSER (produced by Bio-Rad Laboratories, USA).
Namely, to a cuvette having a 0.4 cm gap, added were 8×10^6 cells and 10 μg of plasmid pVgRXR2-hPPARγ obtained in Reference Example 3 and 10 μg of reporter plasmid pGL3-4ERPP-TK neo obtained in Reference Example 4, which was subjected to electroporation at the voltage of 0.25 kV under the capacitance of 960 μF. Subsequently, the cell was transferred into a HAM F12 medium containing 10% Fetal Bovine. Serum and cultured for 24 hours. Then the cell was scraped again and centrifuged, and then suspended in HAM F12 medium containing 10% Fetal Bovine Serum supplemented with 500 μg/ml of GENETICIN (produced by Life Technologies, Inc., USA) and 250 μg/ml of ZEOCIN (produced by Invitrogen, USA). The suspension was diluted to the density of 10^4 cells/ml, and inoculated to a 96-well plate (produced by Corning Costar Corporation, USA), which was cultured in a CO2 gas incubator at 37° C., whereby obtaining a GENETICIN- and ZEOCIN-resistant transformant.
Subsequently, after the transformant cell line thus obtained was cultured in a 24-well plate (produced by Corning Costar Corporation, USA), selected was a cell line, PPARγ:RXRα:4ERPP/CHO-K1 cell, in which the luciferase was expressed and induced by addition of 10 μM pioglitazone hydrochloride.
For orientation: Reporter assays use an easily measured gene product as a stand-in for the process of interest.

The mark [1] stands for this setting: percent reduction of plasma glucose level vs non-administration group, read-out: hypoglycemic action (%).
[2] abbreviates: percent reduction of plasma triglyceride level vs non-administration group, read-out: hypolipidemic action (%).

With `Cc1oc(-c2ccccc2)nc1COc1ccc(COc2cccc(CC(=O)O)c2)cc1` [Example 1, 2-[3-[4-[(5-methyl-2-phenyl-4-oxazolyl)methoxy]benzyloxy]phenyl]acetic acid], the inhibition in vivo at 0.005 % with KKAY mice (setting [1]) is 21%; with KKAY mice (setting [2]) it was 33%. Besides, a half-maximal effect at PPARγ-RXRα heterodimer (EC50) was put at 290 nM.
In the case of `CCOc1ccc(OCc2ccc(OCc3nc(-c4ccccc4)oc3C)cc2)cc1CCC(=O)O` [Example 7, 3-[2-ethoxy-5-[4-[(5-methyl-2-phenyl-4-oxazolyl)methoxy]benzyloxy]phenyl]propionic acid], the inhibition in vivo at 0.01 % worked out at 48% in the test with KKAY mice (setting [1]) and 62% in the test with KKAY mice (setting [2]). On PPARγ-RXRα heterodimer, the EC50 (as a rule, the concentration that produces a half-maximal response) worked out at 36 nM.
As for `Cc1oc(-c2ccccc2)nc1COc1ccc(COc2ccccc2CC(=O)O)cc1` [Example 11, 2-[2-[4-[(5-methyl-2-phenyl-4-oxazolyl)methoxy]benzyloxy]phenyl]acetic acid], the inhibition in vivo at 0.005 % in the test on KKAY mice (setting [1]) was 56%; with KKAY mice (setting [2]), 84%. This molecule also showed a 50% effective concentration (EC50) on PPARγ-RXRα heterodimer of 62 nM.
With `Cc1ccc(OCc2ccc(OCc3nc(-c4ccccc4)oc3C)cc2)c(CC(=O)O)c1` [Example 15, 2-[5-methyl-2-[4-[(5-methyl-2-phenyl-4-oxazolyl)methoxy]benzyloxy]phenyl]acetic acid], the inhibition in vivo at 0.005 % in the test on KKAY mice (setting [1]) is 49%; in the test with KKAY mice (setting [2]), 60%. The same molecule had an EC50 at PPARγ-RXRα heterodimer of 200 nM.
With `Cc1oc(-c2ccccc2)nc1COc1ccc(COc2ccc(Cl)cc2CC(=O)O)cc1` [Example 18, 2-[5-chloro-2-[4-[(5-methyl-2-phenyl-4-oxazolyl)methoxy]benzyloxy]phenyl]acetic acid], the inhibition in vivo at 0.005 % in the test on KKAY mice (setting [1]) was 41%; in the test with KKAY mice (setting [2]) it was 34%. Also, the EC50 on PPARγ-RXRα heterodimer came out at 2900 nM.
Regarding `COc1ccc(OCc2ccc(OCc3nc(-c4ccccc4)oc3C)cc2)c(CC(=O)O)c1` [Example 24, 2-[5-methoxy-2-[4-[(5-methyl-2-phenyl-4-oxazolyl)methoxy]benzyloxy]phenyl]acetic acid], the values for the inhibition in vivo at 0.005 % with KKAY mice (setting [1]) and in the test on KKAY mice (setting [2]) were 49% and 67%, respectively. For the same molecule, a half-maximal response at PPARγ-RXRα heterodimer (EC50) required 160 nM.
As to `CCOc1ccc(OCc2ccc(OCc3nc(-c4ccccc4)oc3C)cc2)c(CC(=O)O)c1` [Example 26, 2-[5-ethoxy-2-[4-[(5-methyl-2-phenyl-4-oxazolyl)methoxy]benzyloxy]phenyl]acetic acid], the inhibition in vivo at 0.01 % in the test on KKAY mice (setting [1]) amounted to 53%; in the test with KKAY mice (setting [2]) it was 88%. For the same molecule, the EC50 at PPARγ-RXRα heterodimer was 35 nM.
Take `CCOc1ccc(OCc2ccc(OCc3nc(-c4ccccc4)oc3C)cc2)c(CCC(=O)O)c1` [Example 29, 3-[5-ethoxy-2-[4-[(5-methyl-2-phenyl-4-oxazolyl)methoxy]benzyloxy]phenyl]propionic acid]: the inhibition in vivo at 0.01 % in the test with KKAY mice (setting [1]) worked out at 58%; with KKAY mice (setting [2]), 67%. The same molecule displayed an EC50 on PPARγ-RXRα heterodimer of 25 nM.
In the same order, the values of `Cc1oc(-c2ccccc2)nc1COc1cccc(COc2cccc(CC(=O)O)c2)c1` [Example 32, 2-[[3-[3-(5-methyl-2-phenyl-4-oxazolyl)methoxy]benzyloxy]phenyl]acetic acid] are 40%, 53% and 77 nM.
As to `Cc1oc(-c2ccccc2)nc1COc1ccc(COc2ncccc2CC(=O)O)cc1` [Example 36, 2-[2-[4-[(5-methyl-2-phenyl-4-oxazolyl)methoxy]benzyloxy]-3-pyridyl]acetic acid], the inhibition in vivo at 0.005 % in the test with KKAY mice (setting [1]) was determined as 55%; with KKAY mice (setting [2]), 71%. On PPARγ-RXRα heterodimer, this molecule had an EC50 of 33 nM.
In the same order, the values of `Cc1oc(-c2ccccc2)nc1COc1ccc(COc2cccnc2CC(=O)O)cc1` [Example 37, 2-[3-[4-[(5-methyl-2-phenyl-4-oxazolyl)methoxy]benzyloxy]-2-pyridyl]acetic acid] are 50%, 61% and 610 nM.
Regarding `Cc1oc(-c2ccccc2)nc1COc1ccc(COc2ccccc2CC(=O)O)cn1` [Example 41, 2-[2-[[6-[(5-methyl-2-phenyl-4-oxazolyl)methoxy]-3-pyridyl]methoxy]phenyl]acetic acid], the inhibition in vivo at 0.005 % is 48% in the test on KKAY mice (setting [1]) and 93% with KKAY mice (setting [2]). On PPARγ-RXRα heterodimer, the EC50 is 15 nM.
On to `COc1cc(COc2ccccc2CC(=O)O)ccc1OCc1nc(-c2ccccc2)oc1C` [Example 48, 2-[2-[3-methoxy-4-[(2-phenyl-5-methyl-4-oxazolyl)methoxy]benzyloxy]phenyl]acetic acid], for which the inhibition in vivo at 0.005 % was 53% in the test with KKAY mice (setting [1]) and 50% with KKAY mice (setting [2]). This molecule also showed an EC50 at PPARγ-RXRα heterodimer of 18 nM.
For the molecule `Cc1oc(-c2ccco2)nc1COc1ccc(COc2ccccc2CC(=O)O)cc1` [Example 50, 2-[2-[4-[[2-(2-furyl)-5-methyl-4-oxazolyl]methoxy]benzyloxy]phenyl]acetic acid], the inhibition in vivo at 0.005 % in the test with KKAY mice (setting [1]) was found to be 54%; in the test with KKAY mice (setting [2]) it was 77%. Moreover, the midpoint of the response on PPARγ-RXRα heterodimer, the EC50, lay at 180 nM.
